According to patent US6489321B1, “Nonpeptide substituted benzothiazepines as vasopressin antagonists” (Ortho-McNeil Pharmaceutical, Inc., priority 1999, dated 2002):
One block for each molecule: values may come before it.

Legend:
[1] = target: T1, cloned human V2 receptor (Homo sapiens, UniProt P30518); assay: In-vitro vasopressin receptor binding assay, V2; conditions: 3H-arginine-8-vasopressin; for IC50: footnote 1: IC50 values (μM)
T1 construct: expressed in transfected cells
Method: Assay buffer is 50 mM Tris-Cl, 5 mM MgC12, 0.1% BSA (pH 7.5) containing 5 ug/ml of aprotinin, leupeptin, pepstatin, 50 ug/ml bacitracin, and 1 mM Pefabloc. H3 vasopressin is ^3H-arginine-8-vasopressin (68.5 Ci/mmol, final concentration in assay is 0.65-0.75nM). Into wells of 96-well round bottom polypropylene plates are added buffer, test compound, membrane (containing cloned human V2 receptor), and H3 vasopressin. The reaction plates are allowed to sit at room temperature for one hour. The samples are filtered through Unifilter GF/C plates (presoaked in 0.3 polyethyleneimine). The plates are washed 5 times with cold physiological saline containing 0.05% Tween 20. After drying, the bottom of the filter plates are sealed and 0.025 ml of Microscint-20 is added to each filter. The top of the plate is sealed, and the plate is counted. Non-specific binding is determined by the addition of 1.25 uM arginine-8-vasopressin in those wells. %Inh. is [formula]

[2] = target: vasopressin V1a receptor (Homo sapiens, UniProt P37288); assay: In-vitro vasopressin receptor binding assay, V1a; conditions: for IC50: footnote 1: IC50 values (μM); for inhibition at 1 µM / inhibition at 0.1 µM: read-out: Receptor Binding (% Inh. @ concentration in μM) V1a
Chain of vasopressin V1a receptor (P37288 whole entry): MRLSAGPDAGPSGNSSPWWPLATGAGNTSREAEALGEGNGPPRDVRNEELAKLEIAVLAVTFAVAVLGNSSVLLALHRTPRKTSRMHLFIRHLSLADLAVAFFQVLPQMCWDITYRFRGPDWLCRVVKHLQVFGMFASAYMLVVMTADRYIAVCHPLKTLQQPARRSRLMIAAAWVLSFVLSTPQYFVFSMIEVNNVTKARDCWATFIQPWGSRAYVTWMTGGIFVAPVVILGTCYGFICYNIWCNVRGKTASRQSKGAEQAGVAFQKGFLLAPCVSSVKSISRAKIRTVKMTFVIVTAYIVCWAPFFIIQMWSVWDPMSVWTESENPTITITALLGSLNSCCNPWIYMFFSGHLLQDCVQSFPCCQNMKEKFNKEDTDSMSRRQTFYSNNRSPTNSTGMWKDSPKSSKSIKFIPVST

T1 sequence (P30518 whole entry): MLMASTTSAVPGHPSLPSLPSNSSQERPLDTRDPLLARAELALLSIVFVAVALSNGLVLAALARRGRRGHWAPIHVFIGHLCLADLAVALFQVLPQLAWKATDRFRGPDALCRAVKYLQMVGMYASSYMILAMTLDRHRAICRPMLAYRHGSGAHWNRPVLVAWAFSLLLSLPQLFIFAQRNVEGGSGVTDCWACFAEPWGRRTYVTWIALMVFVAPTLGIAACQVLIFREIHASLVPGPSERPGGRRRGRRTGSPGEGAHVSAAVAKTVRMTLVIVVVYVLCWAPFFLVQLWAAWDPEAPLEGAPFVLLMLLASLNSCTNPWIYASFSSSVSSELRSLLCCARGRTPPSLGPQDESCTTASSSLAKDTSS

Structure (SMILES): COc1ccc(CNCCC2CC(=O)N(Cc3ccc(NC(=O)c4ccccc4C)cc3)c3ccccc3S2)c(OC)c1 (stereo not shown) [Compound 8]
- Receptor Binding (% Inh. @ concentration in μM) V2 ([1]; 10 μM test compound): 32% @ 10
- Receptor Binding (% Inh. @ concentration in μM) V1a ([2]; 10 μM test compound): 33% @ 10

Structure (SMILES): Cc1ccccc1C(=O)Nc1ccc(C(=O)N2CCC(CCN(C)C)Sc3ccccc32)cc1 (stereo not shown) [Compound 9]
- Receptor Binding (% Inh. @ concentration in μM) V2 ([1]; 10 μM test compound): 63% @ 10
- IC50 [2]: 1.5 µM

Structure (SMILES): CN(C)CCC1CCN(C(=O)c2ccc(NC(=O)c3ccccc3-c3ccccc3)cc2)c2ccccc2S1 (stereo not shown) [Compound 11, 2-(2-Dimethylaminoethyl)-5-(4-(2-phenylbenzoylamino)benzoyl)-1,5-benzothiazepine]
- IC50 [1]: 0.43 µM
- Receptor Binding (% Inh. @ concentration in μM) V1a ([2]; 10 μM test compound): 63% @ 10

Structure (SMILES): CN(C)CCC1CCN(C(=O)c2ccc(N)cc2)c2ccccc2S1 (stereo not shown) [Compound 12]
- Receptor Binding (% Inh. @ concentration in μM) V2 ([1]; 10 μM test compound): 6% @ 10
- Receptor Binding (% Inh. @ concentration in μM) V1a ([2]; 10 μM test compound): 35% @ 10

Structure (SMILES): CNCCC1CCN(C(=O)c2ccc(NC(=O)c3ccccc3C)cc2)c2ccccc2S1 (stereo not shown) [Compound 14]
- Receptor Binding (% Inh. @ concentration in μM) V2 ([1]; 1 μM test compound): 28% @ 1
- Receptor Binding (% Inh. @ concentration in μM) V1a ([2]; 1 μM test compound): 50% @ 1

Structure (SMILES): Cc1ccccc1C(=O)Nc1ccc(C(=O)N2CCC(CCN)Sc3ccccc32)cc1 (stereo not shown) [Compound 15, 2-(2-Aminoethyl)-5-[4-(2-methylbenzoylamino)benzoyl]-1,5-benzothiazepine]
- Receptor Binding (% Inh. @ concentration in μM) V2 ([1]; 1 μM test compound): 47% @ 1
- Receptor Binding (% Inh. @ concentration in μM) V1a ([2]; 1 μM test compound): 42% @ 1

Structure (SMILES): Cc1ccccc1C(=O)Nc1ccc(C(=O)N2CCC(CCO)Sc3ccccc32)cc1 (stereo not shown) [Compound 18]
- IC50 [1]: 0.048 µM
- IC50 [2]: 0.041 µM

Structure (SMILES): O=C(Nc1ccc(S(=O)(=O)N2CCC(CCO)Sc3ccccc32)cc1)c1ccccc1-c1ccccc1 (stereo not shown) [Compound 19, 2-(2-Hydroxyethyl)-5-[4-(2-phenylbenzoylamino)-benzenesulfonyl]-1,5-benzothiazepine]
- Receptor Binding (% Inh. @ concentration in μM) V2 ([1]; 1 μM test compound): 27% @ 1
- Receptor Binding (% Inh. @ concentration in μM) V1a ([2]; 1 μM test compound): 34% @ 1

Structure (SMILES): Cc1ccccc1C(=O)Nc1ccc(CN2C(=O)CC(CCO)Sc3ccccc32)cc1 (stereo not shown) [Compound 22, 2-(2-Hydroxyethyl)-5-(4-(2-methylbenzoylamino)benzyl)-1,5-benzothiazepine-4-one]
- Receptor Binding (% Inh. @ concentration in μM) V2 ([1]; 1 μM test compound): 33% @ 1
- Receptor Binding (% Inh. @ concentration in μM) V1a ([2]; 1 μM test compound): 54% @ 1

Structure (SMILES): O=C(Nc1ccc(CN2C(=O)CC(CCO)Sc3ccccc32)cc1)c1ccccc1-c1ccccc1 (stereo not shown) [Compound 23, 2-(2-Hydroxyethyl)-5-(4-(2-phenylbenzoylamino)benzyl)-1,5-benzothiazepine-4-one]
- Receptor Binding (% Inh. @ concentration in μM) V2 ([1]; 1 μM test compound): 43% @ 1
- Receptor Binding (% Inh. @ concentration in μM) V1a ([2]; 1 μM test compound): 33% @ 1

Structure (SMILES): O=C(O)CC1CCN(C(=O)c2ccc(NC(=O)c3ccccc3-c3ccccc3)cc2)c2ccccc2[S+]1[O-] (stereo not shown) [Compound 24, 2-Carboxymethyl-1-oxo-5-(4-(2-phenylbenzoylamino)benzoyl)-1,5-benzothiazepine]
- IC50 [1]: 0.108 µM
- inhibition at 1 µM ([2]; 1 μM test compound): 0%

Structure (SMILES): O=C(Nc1ccc(C(=O)N2CCC(CCS(=O)(=O)O)Sc3ccccc32)cc1)c1ccccc1-c1ccccc1 (stereo not shown) [Compound 32, 2-Ethyl[5-[4-(2-phenylbenzoylamino)benzoyl]-1,5-benzothiazepin]sulfonic Acid]
- IC50 [1]: 0.012 µM
- inhibition at 0.1 µM ([2]; 0.1 μM test compound): 10%

Structure (SMILES): O=C(Nc1ccc(C(=O)N2CCC(CCO)S(=O)(=O)c3ccccc32)cc1)c1ccccc1-c1ccccc1 (stereo not shown) [Compound 35, 2-(2-Hydroxyethyl)-1-dioxo-5-(4-(2-phenylbenzoylamino)-benzoyl)-1,5-benzothiazepine]
- Receptor Binding (% Inh. @ concentration in μM) V2 ([1]; 0.1 μM test compound): 20% @ .1
- Receptor Binding (% Inh. @ concentration in μM) V1a ([2]; 0.1 μM test compound): 2% @ .1

Structure (SMILES): O=C(Nc1ccc(C(=O)N2CCC(CCO)[S+]([O-])c3ccccc32)cc1)c1ccccc1-c1ccccc1 (stereo not shown) [Compound 36, 2-(2-hydroxyethyl)-1-oxo-5-(4-(2-phenylbenzoylamino)-benzoyl)-1,5-benzothiazepine]
- Receptor Binding (% Inh. @ concentration in μM) V2 ([1]; 0.1 μM test compound): 38% @ .1
- Receptor Binding (% Inh. @ concentration in μM) V1a ([2]; 0.1 μM test compound): 0 @ .1%

Structure (SMILES): CC(C)(N)C(=O)NCCC1CCN(C(=O)c2ccc(NC(=O)c3ccccc3-c3ccccc3)cc2)c2ccccc2S1.Cl (stereo not shown) [Compound 39, 2-[2-Amino-2-methylpropionamido]-ethyl-5-[4-(2-phenylbenzoylamino)benzoyl]-1,5-benzothiazepine Hydrochloride]
- IC50 [1]: 0.017 µM
- Receptor Binding (% Inh. @ concentration in μM) V1a ([2]; concentration not given): 0%

Further lines, results first:

- IC50 [1]: 0.008 µM
- IC50 [2]: 0.097 µM
Structure (SMILES): O=C(Nc1ccc(C(=O)N2CCC(CCO)Sc3ccccc32)cc1)c1ccccc1-c1ccccc1 (stereo not shown) [Compound 17]

- IC50 [1]: 0.014 µM
- inhibition at 1 µM ([2]; 1 μM test compound): 30%
Structure (SMILES): O=CCC1CCN(C(=O)c2ccc(NC(=O)c3ccccc3-c3ccccc3)cc2)c2ccccc2S1 (stereo not shown) [Compound 25, 2-[5-[4-(2-Phenylbenzoylamino)benzoyl]-1,5-benzothiazepine]acetaldehyde]

- melting point: 204 to 208 °C
- IC50 [1]: 0.004 µM
- inhibition at 0.1 µM ([2]; 0.1 μM test compound): 16%
Structure (SMILES): O=C(O)CC1CCN(C(=O)c2ccc(NC(=O)c3ccccc3-c3ccccc3)cc2)c2ccccc2S1 (stereo not shown) [Compound 29, 2-Carboxymethyl-5-(4-(2-phenylbenzolylamino)benzoyl)-1,5-benzothiazepine]

- IC50 [1]: 0.069 µM
- Receptor Binding (% Inh. @ concentration in μM) V1a ([2]; 0.1 μM test compound): 34% @ .1
Structure (SMILES): N#CCCC1CCN(C(=O)c2ccc(NC(=O)c3ccccc3-c3ccccc3)cc2)c2ccccc2S1 (stereo not shown) [Compound 30]

- IC50 [1]: 0.009 µM
- inhibition at 0.1 µM ([2]; 0.1 μM test compound): 30%
Structure (SMILES): O=C(O)CCC1CCN(C(=O)c2ccc(NC(=O)c3ccccc3-c3ccccc3)cc2)c2ccccc2S1 (stereo not shown) [Compound 31]

- IC50 [1]: 0.05 µM
- Receptor Binding (% Inh. @ concentration in μM) V1a ([2]; 0.1 μM test compound): 17% @ .1
Structure (SMILES): COC(=O)CC1CCN(C(=O)c2ccc(NC(=O)c3ccccc3-c3ccccc3)cc2)c2ccccc2S1 (stereo not shown) [Compound 37, 2-Methyl-[5-(4-(2-phenylbenzoylamino)benzoyl)-1,5-benzothiazepine]acetate]
